Measured values as given in the supplement of paper PMC10307832.

Legend:
Assay in all cases: relative viability (nuclei count vs DMSO), 5 days (fraction); higher = more cells survive
EMC-BAC-2 = system: EMC-BAC-2
Outline: (§1)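 Lung cancer cell lines were pin-tool dosed in 1536-well plates on the day after seeding, with either a lone drug or a fixed anchor-drug dose plus five library-drug doses (not always all listed) in √10 steps. Nuclei were counted on 4× images after 5 days. Relative viability is the ratio of treated-well to vehicle-well nuclei counts, with each value a median of duplicate plates.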

LCLC-97TM1 = system: LCLC-97TM1
Outline: as §1

NCI-H1355 = system: NCI-H1355
Outline: as §1

NCI-H1666 = system: NCI-H1666
Outline: as §1

NCI-H1755 = system: NCI-H1755
Outline: as §1

NCI-H1793 = system: NCI-H1793
Outline: as §1

NCI-H1944 = system: NCI-H1944
Outline: as §1

NCI-H1975 = system: NCI-H1975
Outline: as §1

NCI-H1993 = system: NCI-H1993
Outline: as §1

NCI-H2009 = system: NCI-H2009
Outline: as §1

NCI-H2126 = system: NCI-H2126
Outline: as §1

NCI-H2170 = system: NCI-H2170
Outline: as §1

NCI-H2347 = system: NCI-H2347
Outline: as §1

NCI-H441 = system: NCI-H441
Outline: as §1

NCI-H460 = system: NCI-H460
Outline: as §1

NCI-H520 = system: NCI-H520
Outline: as §1

NCI-H647 = system: NCI-H647
Outline: as §1

NCI-H727 = system: NCI-H727
Outline: as §1

PC-14 = system: PC-14
Outline: as §1

PC-3 [JPC-3] = system: PC-3 [JPC-3]
Outline: as §1

SK-LU-1 = system: SK-LU-1
Outline: as §1

SW 1573 = system: SW 1573
Outline: as §1

## O=c1[nH]c2ccccc2n1C1CCN(CCCC(c2ccc(F)cc2)c2ccc(F)cc2)CC1 [Pimozide] + CC1(C)CCC(c2ccc(Cl)cc2)=C(CN2CCN(c3ccc(C(=O)NS(=O)(=O)c4ccc(N[C@H](CCN5CCOCC5)CSc5ccccc5)c(S(=O)(=O)C(F)(F)F)c4)cc3)CC2)C1 [Navitoclax] (partner 0.5 µM)
EMC-BAC-2; first compound 0.08 µM
  relative viability: 1.09
EMC-BAC-2; first compound 0.253 µM
  relative viability: 1.11
EMC-BAC-2; first compound 0.8 µM
  relative viability: 1.05
EMC-BAC-2; first compound 2.53 µM
  relative viability: 1.06
EMC-BAC-2; first compound 8 µM
  relative viability: 1.07
LCLC-97TM1; first compound 0.08 µM
  relative viability: 0.527
LCLC-97TM1; first compound 0.253 µM
  relative viability: 0.489
LCLC-97TM1; first compound 0.8 µM
  relative viability: 0.215
LCLC-97TM1; first compound 2.53 µM
  relative viability: 0.415
LCLC-97TM1; first compound 8 µM
  relative viability: 0.402
NCI-H1355; first compound 0.08 µM
  relative viability: 0.849
NCI-H1355; first compound 0.253 µM
  relative viability: 1.01
NCI-H1355; first compound 0.8 µM
  relative viability: 0.908
NCI-H1355; first compound 2.53 µM
  relative viability: 0.959
NCI-H1355; first compound 8 µM
  relative viability: 0.856
NCI-H1666; first compound 0.08 µM
  relative viability: 0.824
NCI-H1666; first compound 0.253 µM
  relative viability: 1.01
NCI-H1666; first compound 0.8 µM
  relative viability: 1.04
NCI-H1666; first compound 2.53 µM
  relative viability: 0.846
NCI-H1666; first compound 8 µM
  relative viability: 0.5
NCI-H1755; first compound 0.08 µM
  relative viability: 0.963
NCI-H1755; first compound 0.253 µM
  relative viability: 0.941
NCI-H1755; first compound 0.8 µM
  relative viability: 0.969
NCI-H1755; first compound 2.53 µM
  relative viability: 0.882
NCI-H1755; first compound 8 µM
  relative viability: 0.771
NCI-H1793; first compound 0.08 µM
  relative viability: 0.532
NCI-H1793; first compound 0.253 µM
  relative viability: 0.485
NCI-H1793; first compound 0.8 µM
  relative viability: 0.389
NCI-H1793; first compound 2.53 µM
  relative viability: 0.48
NCI-H1793; first compound 8 µM
  relative viability: 0.494
NCI-H1944; first compound 0.08 µM
  relative viability: 0.945
NCI-H1944; first compound 0.253 µM
  relative viability: 1.05
NCI-H1944; first compound 0.8 µM
  relative viability: 0.926
NCI-H1944; first compound 2.53 µM
  relative viability: 1.03
NCI-H1944; first compound 8 µM
  relative viability: 0.995
NCI-H1975; first compound 0.08 µM
  relative viability: 1.22
NCI-H1975; first compound 0.253 µM
  relative viability: 1.06
NCI-H1975; first compound 0.8 µM
  relative viability: 1.08
NCI-H1975; first compound 2.53 µM
  relative viability: 1.16
NCI-H1975; first compound 8 µM
  relative viability: 0.992
NCI-H1993; first compound 0.08 µM
  relative viability: 0.797
NCI-H1993; first compound 0.253 µM
  relative viability: 0.826
NCI-H1993; first compound 0.8 µM
  relative viability: 0.91
NCI-H1993; first compound 2.53 µM
  relative viability: 0.933
NCI-H1993; first compound 8 µM
  relative viability: 0.806
NCI-H2009; first compound 0.08 µM
  relative viability: 1.2
NCI-H2009; first compound 0.253 µM
  relative viability: 1.14
NCI-H2009; first compound 0.8 µM
  relative viability: 1.13
NCI-H2009; first compound 2.53 µM
  relative viability: 1.2
NCI-H2009; first compound 8 µM
  relative viability: 1.01
NCI-H2126; first compound 0.08 µM
  relative viability: 0.835
NCI-H2126; first compound 0.253 µM
  relative viability: 0.827
NCI-H2126; first compound 0.8 µM
  relative viability: 0.841
NCI-H2126; first compound 2.53 µM
  relative viability: 0.824
NCI-H2126; first compound 8 µM
  relative viability: 0.868
NCI-H2170; first compound 0.08 µM
  relative viability: 0.526
NCI-H2170; first compound 0.253 µM
  relative viability: 0.703
NCI-H2170; first compound 0.8 µM
  relative viability: 0.596
NCI-H2170; first compound 2.53 µM
  relative viability: 0.571
NCI-H2170; first compound 8 µM
  relative viability: 0.585
NCI-H2347; first compound 0.08 µM
  relative viability: 0.799
NCI-H2347; first compound 0.253 µM
  relative viability: 0.732
NCI-H2347; first compound 0.8 µM
  relative viability: 0.73
NCI-H2347; first compound 2.53 µM
  relative viability: 0.683
NCI-H2347; first compound 8 µM
  relative viability: 0.819
NCI-H441; first compound 0.08 µM
  relative viability: 0.685
NCI-H441; first compound 0.253 µM
  relative viability: 0.697
NCI-H441; first compound 0.8 µM
  relative viability: 0.75
NCI-H441; first compound 2.53 µM
  relative viability: 0.487
NCI-H441; first compound 8 µM
  relative viability: 0.346
NCI-H460; first compound 0.08 µM
  relative viability: 1.19
NCI-H460; first compound 0.253 µM
  relative viability: 1.12
NCI-H460; first compound 0.8 µM
  relative viability: 1.06
NCI-H460; first compound 2.53 µM
  relative viability: 1.06
NCI-H460; first compound 8 µM
  relative viability: 0.957
NCI-H520; first compound 0.08 µM
  relative viability: 1.13
NCI-H520; first compound 0.253 µM
  relative viability: 1.05
NCI-H520; first compound 0.8 µM
  relative viability: 1.16
NCI-H520; first compound 2.53 µM
  relative viability: 1.07
NCI-H520; first compound 8 µM
  relative viability: 1.15
NCI-H647; first compound 0.08 µM
  relative viability: 1.17
NCI-H647; first compound 0.253 µM
  relative viability: 1.14
NCI-H647; first compound 0.8 µM
  relative viability: 0.91
NCI-H647; first compound 2.53 µM
  relative viability: 0.954
NCI-H647; first compound 8 µM
  relative viability: 0.837
NCI-H727; first compound 0.08 µM
  relative viability: 0.415
NCI-H727; first compound 0.253 µM
  relative viability: 0.421
NCI-H727; first compound 0.8 µM
  relative viability: 0.409
NCI-H727; first compound 2.53 µM
  relative viability: 0.409
NCI-H727; first compound 8 µM
  relative viability: 0.379
PC-14; first compound 0.08 µM
  relative viability: 1.04
PC-14; first compound 0.253 µM
  relative viability: 1
PC-14; first compound 0.8 µM
  relative viability: 0.99
PC-14; first compound 2.53 µM
  relative viability: 1.09
PC-14; first compound 8 µM
  relative viability: 0.967
PC-3 [JPC-3]; first compound 0.253 µM
  relative viability: 0.73
PC-3 [JPC-3]; first compound 0.8 µM
  relative viability: 0.798
PC-3 [JPC-3]; first compound 2.53 µM
  relative viability: 0.761
PC-3 [JPC-3]; first compound 8 µM
  relative viability: 0.732
SK-LU-1; first compound 0.08 µM
  relative viability: 1.09
SK-LU-1; first compound 0.253 µM
  relative viability: 0.815
SK-LU-1; first compound 0.8 µM
  relative viability: 0.804
SK-LU-1; first compound 2.53 µM
  relative viability: 0.76
SK-LU-1; first compound 8 µM
  relative viability: 0.809
SW 1573; first compound 0.08 µM
  relative viability: 0.92
SW 1573; first compound 0.253 µM
  relative viability: 1.04
SW 1573; first compound 0.8 µM
  relative viability: 0.799
SW 1573; first compound 2.53 µM
  relative viability: 1.02
SW 1573; first compound 8 µM
  relative viability: 0.796
